Measured values published in patent US12558348B2, “Bioactive phytochemicals” (Phytoquest Limited, priority 2019, dated 2026).
pIC50: −log10 of the molar value. Marks after values point to notes of the source that are not given here.

Key:
[1] = tested on: murine microglial cell line BV-2; assay: Nitrite production by LPS-stimulated BV-2 microglial cells; assay type: cell-based; conditions: 24 hours
Protocol: (§1) idoBR1 was used in cell cultures of murine microglial cell line BV-2 at 0, 20, 40 and 80 μg/ml plus and minus sub-optimal LPS. Production of TNF-α and nitrite was measured after 24 hours.

phosphorylated ERK 42/44 = assay: Western blot of phosphorylated ERK p42/44 in LPS-stimulated THP-1 cells; assay type: cell-based, human; conditions: vs LPS = 1.00
Protocol: (§2) THP-1 cells were cultured in RPMI media supplemented with mercaptoethanol & glutamine to get 80% confluence in culture flasks, then they were aspirated and centrifuged at 1500 rpm for 5 mins. The cell pellet was then resuspended in 1 ml of RPMI complete media and counted conventionally using a hemocytometer. The cells (5×106) were incubated with PMA (10 ng/ml) in separate dishes to differentiate THP-1 cells. To determine the protein expression p38 & p42/44, THP-1 cells were pre-treated for 1 hr with idoBR1-100 μg/ml & 50 μg/ml and cucumber extract (Q-actin batch no. B17CF001)—200 μg/ml & 100 μg/ml, followed by 2 hr LPS (1 μg/ml) stimulation. Post incubation, the cells were harvested and whole protein was isolated.
(§3) Cell pellets were lysed, and the protein concentration was determined using the Bio-Rad protein determination assay (Bio-Rad). Total cell proteins were subjected to 8% polyacrylamide SDS gel electrophoresis followed by transfer onto polyvinylidene difluoride membranes (Thermoscientific). The membranes were probed with either mouse anti-phospho-p38 mAb (Thermoscientific) or mouse anti-phospho-p42/44 mAb (Thermoscientific), followed by horseradish peroxidase-conjugated goat anti-mouse polyclonal antibodies (Thermoscientific). All immunoblots were visualized by ECL (Amersham Biosciences).

TNF-α [2] = assay: Production of TNF-α by human monocytic cell line THP-1; assay type: cell-based; conditions: Homo sapiens, THP-1
Protocol: THP-1 cells are commercially available. Cultured cells can be placed in RPMI complete medium in microtitre plates (e.g. […] in 96 well plates) and after 24 hrs incubation, PMA (10 ng/mi) added to 96 well plate to differentiate THP-1 cells and to determine the effects on TNF-α and IL-10 production. The cells should be pre-treated with cucumber extract at, for example, 200 μg/ml to 25 μg/ml followed by 2 hr LPS (100 ng/ml) stimulation. Post incubation, the cell supernatant is aspirated from each of the wells into sterile micro centrifuge tubes and centrifuged at 1000 rpm for 2-3 mins to settle any cells if present. The cell supernatant is then used for evaluation of presence of TNF-α or IL-10 using ELISA. Sandwich ELISA plates coated with suitable antibody are widely available (e.g. R&D Systems, USA).
A second study indicated even greater activity for idoBR1 in human blood (significant at 0.01 μM) with pre-incubation. […] The data clearly indicate that idoBR1 can inhibit the production of TNF-α in human blood. Thus, it appears that it may be a potent anti-inflammatory agent. It also appears that it may be acting via a novel mechanism distinct from the steroid receptor pathways.

THP-1 cells = assay: Viability of THP-1 cells (trypan blue uptake or MTT dye conversion); assay type: cell-based, human
TNF-α [3] = assay: TNF-α production by LPS-stimulated BV-2 microglial cells; assay type: cell-based, murine; conditions: 24 hours
Protocol: as §1

IL-12 = IL-12 ELISA in LPS stimulated THP-1 cells; assay type: cell-based, human; conditions: for % reduction in IL-12 levels: vs LPS control
Protocol: (§4) The cells in an 80% confluence culture flask were aspirated and centrifuged at 1500 rpm for 5 mins. The cell pellet was then resuspended in 1 ml of RPMI complete media and 1×10^5 cells/well seeded to each well of the 96 well microtiter plate. After 24 hrs incubation, PMA (10 ng/ml) was added to the 96 well plate to differentiate THP-1 cells to determine the TNF-α production, THP-1 cells were pretreated for 1 hr with idoBR1 or cucumber extract-Q-actin (batch no. […] Post incubation, the cell supernatant from each of the wells was aspirated into sterile micro centrifuge tubes and centrifuged at 1000 rpm for 2-3 mins. The cell supernatant was then used for evaluation of presence of cytokines using ELISA.
(§5) ELISA plates coated with antibodies for IL-12, IL-1β, or IL-10 (R&D Systems, USA) were used for the following study. To each well 50 μL of Assay Diluent RD1F was added after mixing well. 200 μL of sample (idoBR1 or extract), or control per well was added and covered with an adhesive strip. Following incubation for 2 hours at room temperature each well was aspirated and washed 4 times with Wash Buffer (400 μl). After the last wash, any remaining Wash Buffer was removed by aspirating or decanting. The plates were inverted and blotted against clean paper towels. To each well 200 μl of appropriate human conjugate was added and these then covered with a new adhesive strip and incubated for 1 hour at room temperature. The aspiration/wash was then repeated. 200 μL of Substrate Solution was then added to each well and further incubated for 20 minutes at room temperature protected from light. 50 μL of Stop Solution was added to each well. The colour in the wells was changed from blue to yellow. OD was measured within 30 minutes at 450 nm.

IL-10 = IL-10 ELISA in LPS stimulated THP-1 cells; assay type: cell-based, human; conditions: for Fold increase in IL-10 levels: vs control = 1.00
Protocol: as §4, §5

phosphorylated p38 = assay: Western blot of phosphorylated p38 in LPS-stimulated THP-1 cells; assay type: cell-based, human; conditions: vs LPS = 1.00
Protocol: as §2, §3

O=C(O)[C@@H]1NC[C@H](O)[C@@H](O)[C@@H]1O [idoBR1, (2R,3R,4R,5S)-3,4,5-trihydroxypiperidine-2-carboxylic acid]
Nitrite production ([1]; 20 μg/ml + LPS): 11* μM | Nitrite production ([1]; 40 μg/ml + LPS): 9** μM | Nitrite production ([1]; 80 μg/ml + LPS): 8** μM | Relative expression of p42/44 (phosphorylated ERK 42/44; 50 μg/ml): 0.80 | Relative expression of p42/44 (phosphorylated ERK 42/44; 100 μg/ml): 0.76 | inhibition at 10 µM (TNF-α [2]; 10 μM): > 50% | pIC50 (TNF-α [2]; 48 hr preincubation, read-out: IC50 for inhibition of the production of TNF-α by THP-1 cells): 7.57 | viability of THP-1 cells (THP-1 cells): did not significantly alter | TNF-α production (TNF-α [3]; 20 μg/ml + LPS): 500** pg/ml | TNF-α production (TNF-α [3]; 40 μg/ml + LPS): 470** pg/ml | TNF-α production (TNF-α [3]; 80 μg/ml + LPS): 410*** pg/ml | IL-12 (IL-12; 12.5 μg/mL): 104.23 pg/mL | % reduction in IL-12 levels (IL-12; 12.5 μg/mL): 11.22% | IL-12 (IL-12; 25 μg/mL): 97.37 pg/mL | % reduction in IL-12 levels (IL-12; 25 μg/mL): 17.07% | IL-12 (IL-12; 50 μg/mL): 92.89 pg/mL | % reduction in IL-12 levels (IL-12; 50 μg/mL): 20.88% | IL-12 (IL-12; 100 μg/mL): 88.60 pg/mL | % reduction in IL-12 levels (IL-12; 100 μg/mL): 24.53% | IL-10 (IL-10; 12.5 μg/mL): 19.02 pg/mL | Fold increase in IL-10 levels (IL-10; 12.5 μg/mL): 1.34 fold | IL-10 (IL-10; 25 μg/mL): 29.34 pg/mL | Fold increase in IL-10 levels (IL-10; 25 μg/mL): 2.07 fold | IL-10 (IL-10; 50 μg/mL): 37.22 pg/mL | Fold increase in IL-10 levels (IL-10; 50 μg/mL): 2.63 fold | IL-10 (IL-10; 100 μg/mL): 43.08 pg/mL | Fold increase in IL-10 levels (IL-10; 100 μg/mL): 3.04 fold | Relative expression of p38 (phosphorylated p38; 50 μg/ml): 0.88 | Relative expression of p38 (phosphorylated p38; 100 μg/ml): 0.80
